Where two headings read alike, the source gives them in different places.
Assays:
[1] = molecular target: T1, human A1 adenosine receptors (Homo sapiens, UniProt P30542); experiment: Displacement of [^3H]CHA binding, human A1 adenosine receptors in CHO cells (agonist radioligand)
T1 sequence (P30542 1-326): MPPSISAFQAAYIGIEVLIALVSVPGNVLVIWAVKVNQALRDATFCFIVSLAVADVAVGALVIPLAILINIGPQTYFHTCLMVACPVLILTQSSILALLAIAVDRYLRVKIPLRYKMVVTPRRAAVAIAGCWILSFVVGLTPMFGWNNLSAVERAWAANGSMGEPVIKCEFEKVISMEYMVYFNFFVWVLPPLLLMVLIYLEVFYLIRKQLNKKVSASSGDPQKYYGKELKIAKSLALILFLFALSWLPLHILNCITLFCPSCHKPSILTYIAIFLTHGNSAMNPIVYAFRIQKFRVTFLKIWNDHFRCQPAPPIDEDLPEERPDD

[2] = molecular target: T2, human A2A adenosine receptors (Homo sapiens, UniProt P29274); experiment: Displacement of [^3H]CGS21680 binding, human A2A adenosine receptors in CHO cells (agonist radioligand); settings: read-out: Ki(A2A). Displacement of [^3H]CGS21680 binding to human A2A adenosine receptors exp. in CHO cells.
T2 construct: expressed in transfected cells; host or cells: CHO cells

[3] = molecular target: T3, human A3 adenosine receptors (Homo sapiens, UniProt P0DMS8); settings: for A1/A3: ratio Ki(A1)/Ki(A3), agonist radioligands
T3 sequence (P0DMS8 1-318): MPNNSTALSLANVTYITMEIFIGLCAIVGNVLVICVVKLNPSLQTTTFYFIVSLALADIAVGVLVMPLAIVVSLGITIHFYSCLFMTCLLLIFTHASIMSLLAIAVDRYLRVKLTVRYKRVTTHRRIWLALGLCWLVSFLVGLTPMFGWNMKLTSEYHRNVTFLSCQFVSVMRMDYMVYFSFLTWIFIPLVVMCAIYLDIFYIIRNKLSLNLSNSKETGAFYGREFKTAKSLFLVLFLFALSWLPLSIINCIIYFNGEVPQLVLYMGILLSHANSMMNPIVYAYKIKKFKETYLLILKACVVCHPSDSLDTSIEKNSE

[4] = human A2A, CHO cells, [^3H]CGS21680

T2 sequence (P29274 whole entry): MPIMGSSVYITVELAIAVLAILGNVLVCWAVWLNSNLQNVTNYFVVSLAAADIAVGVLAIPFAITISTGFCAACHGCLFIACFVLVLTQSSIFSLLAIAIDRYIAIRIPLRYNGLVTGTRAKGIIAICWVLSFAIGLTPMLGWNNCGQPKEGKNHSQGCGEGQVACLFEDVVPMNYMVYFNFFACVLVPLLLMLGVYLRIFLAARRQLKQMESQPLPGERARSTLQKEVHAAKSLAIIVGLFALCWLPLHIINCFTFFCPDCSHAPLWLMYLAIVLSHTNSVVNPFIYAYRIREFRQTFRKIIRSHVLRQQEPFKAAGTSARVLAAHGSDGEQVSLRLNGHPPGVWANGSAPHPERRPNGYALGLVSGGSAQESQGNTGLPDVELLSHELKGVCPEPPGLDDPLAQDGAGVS

| melting point | Structure (SMILES) | further results |
| --- | --- | --- |
| 140 °C | CCNC(=O)[C@H]1O[C@@H](n2cnc3c(NC(=O)Nc4ccc(S(=O)(=O)N(C)C(C)C)cc4)ncnc32)C(O)C1O (stereo partly drawn) [Compound 97, 1-Deoxy-1-[6-[[[[4-[N-(1-methylethyl)-N-(methyl)-aminosulfonyl]phenyl]amino]carbo-nyl]amino]-9H-purin-9-yl]-N-ethyl-β-D-ribofuranuronamide] |  |
| 176 °C | CCNC(=O)[C@H]1O[C@@H](n2cnc3c(NC(=O)Nc4ccc(S(=O)(=O)N(C)C)cc4)ncnc32)C(O)C1O (stereo partly drawn) [Compound 98, 1-Deoxy-1-[6-[[[[4-[N,N-(dimethyl)amino-sulfonyl]phenyl]amino]carbonyl]amino]-9H-purin-9-yl]-N-ethyl-β-D-ribofuranuronamide] | Ki [1]: 0.28 µM; Ki [2, 4]: > 1 µM |
| 126 °C | C=CCN(CC=C)S(=O)(=O)c1ccc(NC(=O)Nc2ncnc3c2ncn3[C@@H]2O[C@H](C(=O)NCC)[C@@H](O)[C@H]2O)cc1 [Compound 99, 1-Deoxy-1-[6-[[[[4-[N,N-bis(allyl)amino-sulfonyl]phenyl]amino]carbonyl]amino]-9H-purin-9-yl]-N-ethyl-β-D-ribofuranuronamide] | Ki [1]: 0.38 µM; Ki [2, 4]: > 1 µM; Ki [3]: 0.01 µM; A1/A3 [3]: 38 |
| 168 °C | CCNC(=O)[C@H]1O[C@@H](n2cnc3c(NC(=O)Nc4ccc(S(=O)(=O)N(CC)CC)cc4)ncnc32)[C@H](O)[C@@H]1O [Compound 100, 1-Deoxy-1-[6-[[[[4-[N,N-bis(ethyl)amino-sulfonyl]phenyl]amino]carbonyl]amino]-9H-purin-9-yl]-N-ethyl-β-D-ribofuranuronamide] | Ki [2, 4]: > 1 µM |
|  | CCNC(=O)[C@H]1O[C@@H](n2cnc3c(NC(=O)Nc4ccc(S(=O)(=O)NC5C=CCC5)cc4)ncnc32)[C@H](O)[C@@H]1O (stereo partly shown) [Compound 101] | Ki ([1]; read-out: Ki(A1). Displacement of [^3H]CHA binding to human A1 adenosine receptors exp. in CHO cells., human A1, CHO cells, [^3H]CHA, confidence limits in parentheses): 0.25 µM; Ki [2]: > 1 µM; A1/A3 [3]: 13.16 |
|  | CCCN(CCC)S(=O)(=O)c1ccc(NC(=O)Nc2ncnc3c2ncn3[C@@H]2O[C@H](C(=O)NCC)[C@@H](O)[C@H]2O)cc1 [Compound 102, 1-Deoxy-1-[6-[[[[4-[N,N-bis(propyl)aminosulfonyl]phenyl]amino]-carbo-nyl]amino]-9H-purin-9-yl]-N-ethyl-β-D-ribofuranuronamide] | Ki [1]: 0.35 µM; Ki [2, 4]: > 1 µM; Ki [3]: 0.014 µM |
| 168 to 170 °C | CCNC(=O)[C@H]1O[C@@H](n2cnc3c(NC(=O)Nc4ccccc4S(=O)(=O)Nc4ccc(OC)cc4)ncnc32)C(O)C1O (stereo partly drawn) [Compound 103, 1-Deoxy-N-ethyl-1-[[6-[[[2-N-(4-methoxyphenyl)-sulfonamidophenyl]amino]carbonyl]amino]-9H-purin-9-yl]-b-D-ribofuran-uronamide] |  |
| 158 to 159 °C | CCCCCNS(=O)(=O)c1cccc(NC(=O)Nc2ncnc3c2ncn3[C@@H]2O[C@H](C(=O)NCC)C(O)C2O)c1 (stereo partly drawn) [Compound 104, 1-Deoxy-N-ethyl-1-[[6-[[[3-N-(pentyl)-sulfonamido-phenyl]amino]carbonyl]amino]-9H-purin-9-yl]-b-D-ribofuranuronamide] |  |
| 206 to 208 °C (dec.) | CCNC(=O)[C@H]1O[C@@H](n2cnc3c(NC(=O)Nc4cccc(S(=O)(=O)Nc5ccc(OC)cc5)c4)ncnc32)C(O)C1O (stereo partly drawn) [Compound 105, 1-Deoxy-N-ethyl-1-[[6-[[[3-N-(4-methoxyphenyl)-sulfonamidophenyl]amino]carbonyl]amino]-9H-purin-9-yl]-b-D-ribofuran-uronamide] |  |
| 188 to 189 °C | CCNC(=O)[C@H]1O[C@@H](n2cnc3c(NC(=O)Nc4ccccc4S(N)(=O)=O)ncnc32)C(O)C1O (stereo partly drawn) [Compound 106, 1-Deoxy-N-ethyl-1-[[6-[[(2-sulfonamidophenyl)amino]-carbonyl]amino]-9H-purin-9-yl]-b-D-ribofuranuronamide] |  |
| 142 to 144 °C | CCNC(=O)[C@H]1O[C@@H](n2cnc3c(NC(=O)Nc4ccccc4S(=O)(=O)N(C)C(C)C)ncnc32)C(O)C1O (stereo partly drawn) [Compound 107, 1-Deoxy-N-ethyl-1-[[6-[[[2-N-(isopropyl)-N-(methyl)-sulfonamidophenyl]amino]carbonyl]amino]-9H-purin-9-yl]-b-D-ribofuranuron-amide] |  |
| 155 to 157 °C | CCCCCNS(=O)(=O)c1ccccc1NC(=O)Nc1ncnc2c1ncn2[C@@H]1O[C@H](C(=O)NCC)C(O)C1O (stereo partly drawn) [Compound 108, 1-Deoxy-N-ethyl-1-[[6-[[[2-N-(pentyl)-sulfonamido-phenyl]amino]carbonyl]amino]-9H-purin-9-yl]-b-D-ribofuranuronamide] |  |
| 159 to 161 °C | CCNC(=O)[C@H]1O[C@@H](n2cnc3c(NC(=O)Nc4ccccc4S(=O)(=O)NC45C[C@H]6C[C@@H](C4)C[C@@H](C5)C6)ncnc32)C(O)C1O (stereo partly drawn) [Compound 109, 1-Deoxy-N-ethyl-1-[[6-[[[2-N-(adamantan-1-yl)-sulfonamidophenyl]amino]carbonyl]amino]-9H-purin-9-yl]-b-D-ribofuran-uronamide] |  |
| 149 to 151 °C | CCNC(=O)[C@H]1O[C@@H](n2cnc3c(NC(=O)Nc4ccccc4S(=O)(=O)N4CC=CC4)ncnc32)C(O)C1O (stereo partly drawn) [Compound 110, 1-Deoxy-N-ethyl-1-[[6-[[[2-(2,5-dihydropyrrol-1-yl)sulfonylphenyl]amino]carbonyl]amino]-9H-purin-9-yl]-b-D-ribofuranuronamide] |  |
| 147 to 148 °C | CCNC(=O)[C@H]1O[C@@H](n2cnc3c(NC(=O)Nc4cccc(S(=O)(=O)N(C)C(C)C)c4)ncnc32)C(O)C1O (stereo partly drawn) [Compound 112, 1-Deoxy-N-ethyl-1-[[6-[[[3-N-(isopropyl)-N-(methyl)-sulfonamidophenyl]amino]carbonyl]amino]-9H-purin-9-yl]-b-D-ribofuranuron-amide] |  |
| 188 to 189 °C | CCNC(=O)[C@H]1O[C@@H](n2cnc3c(NC(=O)Nc4cccc(S(=O)(=O)NC56C[C@H]7C[C@@H](C5)C[C@@H](C6)C7)c4)ncnc32)C(O)C1O (stereo partly drawn) [Compound 113, 1-Deoxy-N-ethyl-1-[[6-[[[3-N-(adamantan-1-yl)-sulfonamidophenyl]amino]carbonyl]amino]-9H-purin-9-yl]-b-D-ribofuran-uronamide] |  |
| 145 to 146 °C | CCNC(=O)[C@H]1O[C@@H](n2cnc3c(NC(=O)Nc4cccc(S(=O)(=O)N5CC=CC5)c4)ncnc32)C(O)C1O (stereo partly drawn) [Compound 114, 1-Deoxy-N-ethyl-1-[[6-[[[3-(2,5-dihydropyrrol-1-yl)sulfonylphenyl]amino]carbonyl]amino]-9H-purin-9-yl]-b-D-ribofuranuronamide] |  |

Source: patent US7511133B2, “Adenosine A3 receptor agonists” (King Pharmaceuticals Research and Development, Inc., priority 2003, dated 2009)
